How the values were obtained:
Experiment in all cases: whole plant or invertebrate
[1] = tested on: Aedes aegypti (Yellow fever mosquito)
Method: […] Once the deposits were dry, five non-blood fed adult female Aedes aegypti (between two to five days old) were added to each well, and sustained with a 10% sucrose solution in a cotton wool plug. Assessment of the knockdown after 1 hour, and mortality after 48 hours was carried out.
(§1) In case of multiple tests, the mean value is reported.

[2] = tested on: Anopheles stephensi
Method: (§2) The individual wells of six (6) well tissue culture plates were treated with 250 μl of an ethanol solution containing a test compound at a defined concentration. Once the deposits were dry, ten non-blood fed adult female Aedes aegypti or Anopheles stephensi (each between two to five day old) were added to each well, and sustained with a 10% sucrose solution in a cotton wool plug.
(§3) Assessment of the mortality was carried out at 48 hours.
(§4) Each treatment was replicated twice, with the mean mortality recorded.

[3] = tested on: Aedes aegypti
Method: as §2, §3, §4

[4] = tested on: Anopheles stephensi (Indian malaria mosquito)
Method: […] Once the deposits were dry, five non-blood fed adult female Anopheles stephensi (between two to five days old) were added to each well, and sustained with a 10% sucrose solution in a cotton wool plug. Assessment of the knockdown after 1 hour, and mortality after 48 hours was carried out.
as §1

[5] = Aedes aegypti, 1 h, read-out: Knockdown
[6] = Anopheles stephensi, 1 h, read-out: Knockdown

Structure (SMILES)	pest or weed control at 20 ppm [1, 5] [%]	mortality at 20 ppm ([1]; Aedes aegypti, 48 h) [%]	pest or weed control at 20 ppm [4, 6] [%]	mortality at 20 ppm ([4]; Anopheles stephensi, 48 h) [%]	other results
CC1(C)[C@H](C(=O)O[C@H](C#N)c2cccc(Oc3ccccc3)c2)[C@@H]1/C=C(\Cl)C(F)(F)F (racemic) [Lambda-cyhalothrin, reference compound]	–	–	–	–	pest or weed control at 2 ppm [1, 5]: 92%; mortality at 2 ppm ([1]; Aedes aegypti, 48 h): 100%; mortality at 0.2 ppm ([2]; Anopheles stephensi, 48 h): 84%; mortality at 0.2 ppm ([3]; Aedes aegypti, 48 h): 99%; pest or weed control at 2 ppm [4, 6]: 83%; mortality at 2 ppm ([4]; Anopheles stephensi, 48 h): 100%
CO/C=C(/C(=O)OC)c1ccccc1Oc1ncc(C(C)(C)C)s1 [AA]	0	0	–	–	–
C=CCOC(=O)c1cccn1/C(=C\OC)C(=O)OC [AB, reference compound]	60	100	100	100	mortality at 5 ppm ([2]; Anopheles stephensi, 48 h): 80%; mortality at 5 ppm ([3]; Aedes aegypti, 48 h): 75%
CO/C=C(/C(=O)OC)c1ccccc1COc1cccc(C(F)(F)F)n1 [AC, Picoxystrobin, reference compound]	0	40	100	100	mortality at 5 ppm ([2]; Anopheles stephensi, 48 h): 75%; mortality at 5 ppm ([3]; Aedes aegypti, 48 h): 4%
CCc1nnc(Oc2ccccc2/C(=C\OC)C(=O)OC)s1 [AD]	0	0	–	–	–
CCCCO/N=C(C)/C(C)=N/OCc1ccccc1/C(=C\OC)C(=O)OC [B]	0	0	–	–	–
CO/C=C(/C(=O)OC)c1ccccc1COc1cc(C(F)(F)F)nc(OC(C)C)n1 [C, Fluacrypyrim]	0	0	–	–	–
CO/C=C(/C(=O)OC)c1ccccc1CO/N=C(C)/C(C)=N/OC [Compound 1]	50	90	40	100	mortality at 5 ppm ([2]; Anopheles stephensi, 48 h): 100%; mortality at 5 ppm ([3]; Aedes aegypti, 48 h): 74%
CO/C=C(/C(=O)OC)c1ccccc1Oc1nnc(C(C)(C)C)o1 [Compound 2, methyl (E)-2-[2-[(5-tert-butyl-1,3,4-oxadiazol-2-yl)oxy]phenyl]-3-methoxy-prop-2-enoate]	0	80	40	100	mortality at 5 ppm ([2]; Anopheles stephensi, 48 h): 100%; mortality at 5 ppm ([3]; Aedes aegypti, 48 h): 90%
CO/C=C(/C(=O)OC)c1ccccc1Oc1cncc(OCC(F)(F)F)n1 [Compound 3]	0	100	100	100	–
CO/C=C(/C(=O)OC)c1ccccc1Oc1cc(C(C)(C)C)ncn1 [Compound 9]	0	80	100	100	–
CO/C=C(/C(=O)OC)c1ccccc1Oc1cc(C(F)(F)F)ncn1 [Compound 11, methyl (E)-3-methoxy-2-[2-[6-(trifluoromethyl)pyrimidin-4-yl]oxyphenyl]prop-2-enoate]	100	100	80	100	–
CO/C=C(/C(=O)OC)c1ccccc1Oc1nccc(C(C)(C)C)n1 [Compound 14]	0	40	0	100	–
CO/C=C(/C(=O)OC)c1ccccc1CO/N=C(\C)c1cc(C(F)(F)F)ccn1 [Compound 15]	50	100	40	100	mortality at 5 ppm ([2]; Anopheles stephensi, 48 h): 95%; mortality at 5 ppm ([3]; Aedes aegypti, 48 h): 70%
CCCc1cccc(OCc2ccccc2/C(=C\OC)C(=O)OC)n1 [Compound 16]	0	80	20	100	mortality at 5 ppm ([2]; Anopheles stephensi, 48 h): 95%; mortality at 5 ppm ([3]; Aedes aegypti, 48 h): 20%
CO/C=C(/C(=O)OC)c1ccccc1CO/N=C(\C)c1cc(C(F)(F)C(F)(F)F)ncn1 [Compound 18]	0	40	100	100	mortality at 5 ppm ([2]; Anopheles stephensi, 48 h): 100%; mortality at 5 ppm ([3]; Aedes aegypti, 48 h): 70%
CO/C=C(/C(=O)OC)c1ccccc1COc1ncccc1C(F)(F)F [Compound 19, Methyl (E)-3-methoxy-2-[2-[[3-(trifluoromethyl)-2-pyridyl]oxymethyl]phenyl]prop-2-enoate]	20	100	40	100	mortality at 5 ppm ([2]; Anopheles stephensi, 48 h): 100%; mortality at 5 ppm ([3]; Aedes aegypti, 48 h): 75%
CO/C=C(/C(=O)OC)c1ccccc1COc1nccnc1C(F)(F)F [Compound 20, Methyl (E)-3-methoxy-2-[2-[[3-(trifluoromethyl)pyrazin-2-yl]oxymethyl]phenyl]prop-2-enoate]	100	100	100	100	mortality at 5 ppm ([2]; Anopheles stephensi, 48 h): 100%; mortality at 5 ppm ([3]; Aedes aegypti, 48 h): 70%
CO/C=C(/C(=O)OC)c1ccccc1COc1ncc(C(F)(F)F)cc1C(F)(F)F [Compound 21]	50	90	100	100	mortality at 5 ppm ([2]; Anopheles stephensi, 48 h): 100%; mortality at 5 ppm ([3]; Aedes aegypti, 48 h): 85%
CO/C=C(/C(=O)OC)c1ccccc1COc1nc(F)c(F)cc1F [Compound 23]	100	100	20	100	mortality at 5 ppm ([2]; Anopheles stephensi, 48 h): 93%; mortality at 5 ppm ([3]; Aedes aegypti, 48 h): 60%
Clc1ccc(C(c2ccc(Cl)cc2)C(Cl)(Cl)Cl)cc1 [DDT, reference compound]	–	–	–	–	Knockdown ([1]; 10 ppm, after 1 hour): 35%; mortality ([1]; 10 ppm, after 48 hours): 90%; mortality ([2]; 5 ppm, at 48 hours): 59%; mortality ([3]; 5 ppm, at 48 hours): 85%; Knockdown ([4]; 10 ppm, after 1 hour): 70%; mortality ([4]; 10 ppm, after 48 hours): 80%
CO/C=C(/C(=O)OC)c1ccccc1Oc1ncc([N+](=O)[O-])s1 [D]	0	0	–	–	–

Structure (SMILES)	pest or weed control at 20 ppm [1, 5] [%]	mortality at 20 ppm ([1]; Aedes aegypti, 48 h) [%]	pest or weed control at 20 ppm [4, 6] [%]	mortality at 20 ppm ([4]; Anopheles stephensi, 48 h) [%]	other results
CO/C=C(/C(=O)OC)c1ccccc1CCc1cc(C(F)(F)F)ccn1 [E]	0	0	–	–	–
CO/C=C(/C(=O)OC)c1ccccc1COc1ncccc1Cl [F, reference compound]	0	60	60	100	mortality at 5 ppm ([2]; Anopheles stephensi, 48 h): 20%; mortality at 5 ppm ([3]; Aedes aegypti, 48 h): 30%
CO/C=C(/C(=O)OC)c1ccccc1CO/N=C(\C)c1cc(C(F)(F)F)ncn1 [G]	0	0	–	–	–
CO/C=C(/C(=O)OC)c1ccccc1CO/N=C(\C)c1cccc(C(F)(F)F)n1 [H]	0	0	–	–	–
CO/C=C(/C(=O)OC)c1ccccc1Oc1cc(Cl)ccn1 [I]	0	40	–	–	–
CO/C=C(/C(=O)OC)c1ccccc1Oc1cc(OCC(F)(F)F)ncn1 [J]	0	0	–	–	–
CCCc1nnc(Oc2ccccc2/C(=C\OC)C(=O)OC)o1 [K]	0	0	–	–	–
CCC(CC)/C(C)=N/OCc1ccccc1/C(=C\OC)C(=O)OC [L]	0	0	–	–	–
CO/C=C(/C(=O)OC)c1ccccc1Oc1nc(CC(C)(C)C)ns1 [M]	0	0	–	–	–
CO/C=C(/C(=O)OC)c1ccccc1Oc1nccc(OC(C)(C)C)n1 [N]	0	0	–	–	–
CO/C=C(/C(=O)OC)c1ccccc1Oc1ncnc(C2CC2)n1 [O]	0	0	–	–	–
CO/C=C(/C(=O)OC)c1ccccc1COc1cccc(C(C)(C)C)n1 [P]	0	0	–	–	–
CN/C(C)=N/OCc1ccccc1/C(=C\OC)C(=O)OC [Q]	0	0	–	–	–
CO/C=C(/C(=O)OC)c1ccccc1CO/N=C(C)/C=C/c1ccc(Cl)cc1 [R, Enoxastrobin]	0	0	–	–	–
CO/C=C(/C(=O)OC)c1ccccc1COc1cc(-c2ccc(Cl)cc2)nn1C [S, Pyraoxystrobin]	0	0	–	–	–
CCCCc1c(C)c2ccc(OCc3ccccc3/C(=C\OC)C(=O)OC)cc2oc1=O [T, Coumoxystrobin]	0	0	–	–	–
CO/C=C(/C(=O)OC)c1ccccc1COc1cc(C(F)(F)F)nc(Nc2ccc(Cl)cc2Cl)n1 [U, Pyriminostrobin]	0	0	–	–	–
CO/C=C(/C(=O)OC)c1ccccc1COc1nc2cc(C(F)(F)F)ccc2nc1C(F)(F)F [V]	0	0	–	–	–
CO/C=C(/C(=O)OC)c1ccccc1COc1nc2ccc(C(F)(F)F)cc2nc1C(F)(F)F [W]	0	0	–	–	–
CO/C=C(/C(=O)OC)c1ccccc1COc1nccnc1C#N [X]	0	0	–	–	–
CO/C=C(/C(=O)OC)c1ccccc1Oc1nnc(C(C)(C)C)s1 [Y]	0	0	–	–	–
CCC(C)c1noc(Oc2ccccc2/C(=C\OC)C(=O)OC)n1 (centres unmarked) [Z]	0	0	–	–	–
